Patent US11608353B2, “Amylase inhibitor compounds, methods of their use and compositions thereof” (THE UNIVERSITY OF BRITISH COLUMBIA, priority 2016, dated 2023)
Residue numbers refer to the chain shown, from its start. Several values for one entry are separate records, joined by “and”; a condition that tells them apart may be missing. Equal entries are not always repeated. Where two headings read alike, the source gives them in different places. Blank lines part the entries; values can stand above or below the compound they belong to.

Tests used:
[1] = target: T1, human pancreatic α-amylase (HPA) (Homo sapiens, UniProt P04746); test: Inhibition of wild-type human pancreatic α-amylase (HPA), kinetic KI determination with CNP-G3; format: biochemical
T1 construct: made in house; host or cells: Pichia pastoris strain GM5011
T1 sequence (P04746 16-511): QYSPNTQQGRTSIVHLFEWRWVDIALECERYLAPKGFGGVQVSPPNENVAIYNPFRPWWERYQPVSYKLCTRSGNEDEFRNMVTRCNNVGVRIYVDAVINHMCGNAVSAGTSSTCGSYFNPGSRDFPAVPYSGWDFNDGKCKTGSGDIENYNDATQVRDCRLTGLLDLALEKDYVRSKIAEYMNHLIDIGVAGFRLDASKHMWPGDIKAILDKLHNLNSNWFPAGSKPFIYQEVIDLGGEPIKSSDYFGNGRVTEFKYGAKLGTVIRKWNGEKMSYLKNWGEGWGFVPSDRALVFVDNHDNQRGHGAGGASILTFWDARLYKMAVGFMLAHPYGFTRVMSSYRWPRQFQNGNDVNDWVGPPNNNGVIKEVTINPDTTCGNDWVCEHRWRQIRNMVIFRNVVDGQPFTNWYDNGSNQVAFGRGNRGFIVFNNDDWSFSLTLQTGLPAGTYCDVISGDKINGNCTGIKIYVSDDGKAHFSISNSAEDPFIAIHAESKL

[2] = target: T2, H299N HPA (Homo sapiens, UniProt P04746, H314N); test: Inhibition of H299N variant HPA, kinetic KI determination; format: biochemical; conditions: variant used for co-crystallization; read-out: KI for inhibition of the H299N HPA variant enzyme
T2 construct: made in house; host or cells: Pichia pastoris strain GM5011
T2 sequence (P04746 16-511 H314N): T1 sequence (P04746 16-511) with H299N
Protocol: Kinetic Studies. The inhibition constants (KI) of montbretins A-E and MbA substructures for wild-type HPA, along with MbA for H299N HPA were determined by measuring the rates of reactions at different inhibitor and substrate concentrations. […] 2-Chloro-4-nitrophenyl α-D-maltotrioside (CNP-G3) was used as the substrate in a similar range of concentrations. Initial reaction rates for the release of chloronitrophenolate were measured and the further progress of substrate cleavage monitored continuously. Reactions were performed on a Varian Cary 4000 UV/Vis spectrophotometer at 400 nm and 30° C. Observed reaction rates were fitted directly to various inhibition models using GraFit version 5.0.13 and KI values were determined. Competitive inhibition provided the best fit in each case.

[3] = target: Roseburia inulinivorans Amy A (Roseburia inulinivorans, UniProt A0ACG1Y5C3); test: Inhibition of gut bacterial amylase Roseburia inulinivorans Amy A; format: biochemical; conditions: for Ki: GH family 13
[4] = target: Butyrivibrio fibrisolvens Amy B; test: Inhibition of gut bacterial amylase Butyrivibrio fibrisolvens Amy B; format: biochemical
[5] = target: T3, Homo sapiens ntMGAM (Homo sapiens, UniProt O43451); test: Inhibition of N-terminal domain of maltase glucoamylase; format: biochemical; conditions: for Ki: GH family 31
T3 construct: Homo sapiens ntMGAM

[6] = target: T4, H. sapiens ctMGAM (Homo sapiens, UniProt O43451); test: Inhibition of C-terminal domain of maltase-glucoamylase; format: biochemical; conditions: for Ki: GH family 31
T4 construct: H. sapiens ctMGAM

[7] = target: T5, H. sapiens ctSI (Homo sapiens, UniProt P14410); test: Inhibition of C-terminal domain of sucrose-isomaltase; format: biochemical
T5 construct: H. sapiens ctSI

[8] = target: T1, human pancreatic α-amylase (HPA); conditions: literature value, reference (5); read-out: Ki, binds to HPA; cited from earlier work
[9] = test system: diabetic rat model; conditions: McNeill, unpublished data; cited from earlier work
[10] = wild-type HPA, CNP-G3 substrate, pH 7.0, 30° C., competitive inhibition model, read-out: Ki of HPA
[11] = Tables 4 and 5, read-out: Ki (HPA Inhibition)
[12] = Table 6, GH family 13, mean ± s.d., read-out: Ki (nM), HPA
[13] = tested at 500 μM, read-out: Ki with MbA
[14] = tested at 100 μM, read-out: Ki With MbA-GRX

T5 sequence (P14410 1008-1827 limits assumed): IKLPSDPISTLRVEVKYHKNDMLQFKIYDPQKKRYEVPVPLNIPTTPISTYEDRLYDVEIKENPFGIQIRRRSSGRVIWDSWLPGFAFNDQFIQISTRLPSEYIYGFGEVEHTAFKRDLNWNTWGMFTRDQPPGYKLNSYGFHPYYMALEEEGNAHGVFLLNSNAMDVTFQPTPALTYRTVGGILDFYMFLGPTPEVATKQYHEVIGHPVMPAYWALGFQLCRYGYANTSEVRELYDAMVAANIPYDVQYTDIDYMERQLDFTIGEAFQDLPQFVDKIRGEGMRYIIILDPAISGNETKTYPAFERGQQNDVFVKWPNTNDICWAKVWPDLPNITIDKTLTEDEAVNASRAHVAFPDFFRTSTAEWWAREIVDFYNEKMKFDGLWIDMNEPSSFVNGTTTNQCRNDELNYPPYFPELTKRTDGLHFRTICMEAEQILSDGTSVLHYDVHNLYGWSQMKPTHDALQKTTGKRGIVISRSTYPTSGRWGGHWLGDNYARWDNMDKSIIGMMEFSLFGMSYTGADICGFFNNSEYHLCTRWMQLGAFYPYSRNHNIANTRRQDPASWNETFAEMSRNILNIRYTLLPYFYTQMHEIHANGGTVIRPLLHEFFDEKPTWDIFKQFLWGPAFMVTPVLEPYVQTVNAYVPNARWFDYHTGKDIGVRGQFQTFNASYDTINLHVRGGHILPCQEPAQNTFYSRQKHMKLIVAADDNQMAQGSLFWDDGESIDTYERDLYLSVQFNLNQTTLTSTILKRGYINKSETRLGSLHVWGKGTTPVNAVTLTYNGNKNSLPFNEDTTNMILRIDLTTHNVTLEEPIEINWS
T3 sequence (O43451 356-737 limits assumed): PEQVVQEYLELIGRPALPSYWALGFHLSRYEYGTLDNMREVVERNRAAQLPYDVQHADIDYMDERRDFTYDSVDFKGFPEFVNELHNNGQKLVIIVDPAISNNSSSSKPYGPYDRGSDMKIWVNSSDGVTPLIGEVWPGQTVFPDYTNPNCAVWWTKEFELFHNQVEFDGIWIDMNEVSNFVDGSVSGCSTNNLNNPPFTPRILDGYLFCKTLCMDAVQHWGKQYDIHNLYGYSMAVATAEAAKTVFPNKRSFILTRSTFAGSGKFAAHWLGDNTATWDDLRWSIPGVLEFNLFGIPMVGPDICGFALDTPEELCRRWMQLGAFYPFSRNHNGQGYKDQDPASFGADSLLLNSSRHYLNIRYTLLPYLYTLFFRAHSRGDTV
Sequence of Roseburia inulinivorans Amy A (A0ACG1Y5C3 entry or part of it): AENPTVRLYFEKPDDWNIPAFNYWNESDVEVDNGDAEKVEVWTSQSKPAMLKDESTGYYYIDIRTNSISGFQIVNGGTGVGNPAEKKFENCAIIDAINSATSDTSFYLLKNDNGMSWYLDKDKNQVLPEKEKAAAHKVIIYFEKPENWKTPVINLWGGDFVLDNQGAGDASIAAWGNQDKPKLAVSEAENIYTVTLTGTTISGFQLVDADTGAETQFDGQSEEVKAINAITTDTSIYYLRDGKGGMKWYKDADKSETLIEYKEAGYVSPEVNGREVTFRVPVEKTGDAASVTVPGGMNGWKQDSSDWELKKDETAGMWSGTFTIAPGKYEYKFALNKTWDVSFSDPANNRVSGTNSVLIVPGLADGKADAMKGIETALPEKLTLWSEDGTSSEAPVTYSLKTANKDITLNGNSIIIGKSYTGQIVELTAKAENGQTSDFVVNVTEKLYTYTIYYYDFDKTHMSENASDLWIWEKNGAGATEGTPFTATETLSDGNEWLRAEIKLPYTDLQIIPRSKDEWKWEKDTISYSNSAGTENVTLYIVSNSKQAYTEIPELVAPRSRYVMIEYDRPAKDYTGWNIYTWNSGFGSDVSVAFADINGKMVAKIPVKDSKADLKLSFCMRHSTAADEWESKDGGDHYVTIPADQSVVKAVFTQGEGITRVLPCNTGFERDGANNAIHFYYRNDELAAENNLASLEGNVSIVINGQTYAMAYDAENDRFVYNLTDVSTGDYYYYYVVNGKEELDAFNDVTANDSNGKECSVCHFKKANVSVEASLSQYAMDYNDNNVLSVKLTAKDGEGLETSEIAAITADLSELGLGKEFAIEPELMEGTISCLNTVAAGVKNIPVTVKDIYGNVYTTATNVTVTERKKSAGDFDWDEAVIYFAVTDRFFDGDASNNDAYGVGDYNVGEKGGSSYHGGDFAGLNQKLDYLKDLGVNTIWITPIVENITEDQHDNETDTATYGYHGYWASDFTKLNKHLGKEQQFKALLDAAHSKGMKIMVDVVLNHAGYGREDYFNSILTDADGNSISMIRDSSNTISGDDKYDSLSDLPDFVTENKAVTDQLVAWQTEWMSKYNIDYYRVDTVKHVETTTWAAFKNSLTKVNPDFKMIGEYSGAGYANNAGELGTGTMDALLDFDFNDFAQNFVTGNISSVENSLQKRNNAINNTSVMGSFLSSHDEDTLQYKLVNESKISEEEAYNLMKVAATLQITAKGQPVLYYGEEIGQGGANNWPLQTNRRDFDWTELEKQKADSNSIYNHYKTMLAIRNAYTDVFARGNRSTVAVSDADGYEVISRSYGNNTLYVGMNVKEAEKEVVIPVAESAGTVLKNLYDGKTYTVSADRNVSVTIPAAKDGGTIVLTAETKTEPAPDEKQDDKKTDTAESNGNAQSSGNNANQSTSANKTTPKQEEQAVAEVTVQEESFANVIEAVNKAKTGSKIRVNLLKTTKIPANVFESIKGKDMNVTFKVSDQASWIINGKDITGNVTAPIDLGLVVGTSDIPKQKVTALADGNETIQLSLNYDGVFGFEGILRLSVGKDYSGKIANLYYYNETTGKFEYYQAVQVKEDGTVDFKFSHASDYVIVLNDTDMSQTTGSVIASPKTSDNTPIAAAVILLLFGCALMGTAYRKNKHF
T4 sequence (O43451 1221-1632 limits assumed): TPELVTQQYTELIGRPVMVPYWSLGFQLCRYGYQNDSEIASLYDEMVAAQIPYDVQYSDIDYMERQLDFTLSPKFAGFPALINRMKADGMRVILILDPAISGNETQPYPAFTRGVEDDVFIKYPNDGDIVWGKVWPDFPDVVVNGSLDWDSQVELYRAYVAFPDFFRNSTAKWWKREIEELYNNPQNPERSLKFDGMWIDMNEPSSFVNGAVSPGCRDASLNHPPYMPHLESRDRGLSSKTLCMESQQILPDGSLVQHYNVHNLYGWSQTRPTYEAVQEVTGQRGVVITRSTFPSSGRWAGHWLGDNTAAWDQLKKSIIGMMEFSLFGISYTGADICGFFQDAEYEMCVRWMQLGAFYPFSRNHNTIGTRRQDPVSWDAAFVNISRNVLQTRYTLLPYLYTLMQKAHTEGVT

Compound: Montbretin E [MbE]
- inhibitory activity against HPA (in words) [1]: poor inhibitory activity

Compound: O=C(/C=C/c1ccc(O)c(O)c1)NC[C@H]1O[C@@H](O[C@H]2[C@H](O)[C@@H](O)[C@H](Oc3c(-c4ccc(O)c(O)c4)oc4cc(O)cc(O)c4c3=O)O[C@@H]2CO)[C@H](O)[C@@H](O)[C@@H]1O [11 (6-aminoGlc)]
- Ki [1, 11]: 70000 nM

Compound: O=C(/C=C/c1ccc(O)c(O)c1)NCCCOc1c(-c2ccc(O)c(O)c2)oc2cc(O)cc(O)c2c1=O [Compound 03]
- Ki [1, 11]: 145000 nM

Compound: montbretin A [MbA]
- Ki [1, 12]: 8.1 nM
- Ki [1, 11]: 8 nM
- Ki [1, 10]: 4.4 nM
- Ki [2]: 124 nM
- inhibition of gut bacterial amylase (in words) [3]: not inhibited at all
- Ki [3, 13]: > 500000 nM
- Ki [4]: 1600 nM
- Ki [5, 13]: > 500000 nM
- inhibition of human maltase-glucoamylase (MGAM) (in words) ([5]; concentrations up to 500 μM): Neither the human maltase-glucoamylase (MGAM) nor the human sucrose isomaltase (SI) was inhibited
- Ki [6, 13]: > 500000 nM
- inhibition of human maltase-glucoamylase (MGAM) (in words) ([6]; concentrations up to 500 μM): Neither the human maltase-glucoamylase (MGAM) nor the human sucrose isomaltase (SI) was inhibited
- Ki ([7]; GH family 31, tested at 500 μM, read-out: Ki with MbA): > 500000 nM
- inhibition of human sucrose isomaltase (SI) (in words) ([7]; concentrations up to 500 μM): Neither the human maltase-glucoamylase (MGAM) nor the human sucrose isomaltase (SI) was inhibited
- Ki [8]: 8 nM
- reducing postprandial glucose spiking and delaying the onset of diabetes [9]: superior to other inhibitors

Compound: Montbretin D [MbD]
- inhibitory activity against HPA (in words) [1]: poor inhibitory activity

Compound: O=C(/C=C/c1ccc(O)c(O)c1)NCCCCCCCOc1c(-c2ccc(O)c(O)c2)oc2cc(O)cc(O)c2c1=O [Compound 05]
- Ki [1, 11]: 4000 nM

Compound: Quercetin/Myricetin
- Ki [1, 11]: 100000 nM

Compound: O=C(/C=C/c1ccc(O)c(O)c1)N[C@@H]1[C@H](O)[C@@H](O)[C@H](O[C@H]2[C@H](O)[C@@H](O)[C@H](Oc3c(-c4ccc(O)c(O)c4)oc4cc(O)cc(O)c4c3=O)O[C@@H]2CO)O[C@@H]1CO [12 (4-aminoGal)]
- Ki [1, 11]: 45000 nM

Compound: O=C(/C=C/c1ccc(O)c(O)c1)NCCOCCOCCOc1c(-c2ccc(O)c(O)c2)oc2cc(O)cc(O)c2c1=O [Compound 02]
- Ki [1, 11]: 82000 nM

Now from value to compound:

- Ki [1, 10]: 79 nM and 79.3 nM
Compound: CC1O[C@@H](Oc2c(-c3cc(O)c(O[C@@H]4OC[C@@H](O)C(O)C4O)c(O)c3)oc3cc(O)cc(O)c3c2=O)C(O[C@@H]2OC(COC(=O)/C=C/c3ccc(O)c(O)c3)[C@@H](O)C(O)C2O)C(O)[C@H]1O (stereo partly drawn) [MbA-1GR]

- lower inhibition for HPA than MbB ([1]; relative to MbB): 2 ×
Compound: montbretin C [MbC]

- Ki [1, 10]: 43 nM and 42.4 nM
Compound: CC1O[C@@H](Oc2c(-c3cc(O)c(O)c(O)c3)oc3cc(O)cc(O)c3c2=O)C(O[C@@H]2OC(COC(=O)/C=C/c3ccc(O)c(O)c3)[C@@H](O)[C@@H](O)C2O[C@@H]2OC(CO)[C@@H](O)[C@@H](O)C2O)[C@@H](O)[C@H]1O (stereo partly drawn) [MbA-RX]

- decrease in inhibitory activity ([1]; relative to MbA, reference (5)): ~1000 ×
Compound: montbretin B [MbB]

- Ki [1, 12]: 93.3 ± 7.6 nM
- poorer at binding to the active site of HPA than the full structure of MbA ([1]; relative to MbA (KI=4.4 nM)): ~25 ×
- Ki [1, 10]: 93 nM and 93.3 nM
- Ki [3, 14]: > 100000 nM
- Ki [5, 14]: > 100000 nM
- inhibition of maltase-glucoamylase (in words) ([5]; MbA-GRX): No inhibition
- Ki [6, 14]: > 100000 nM
- inhibition of maltase-glucoamylase (in words) ([6]; MbA-GRX): No inhibition
- IC50 [7]: 75500 nM
Compound: CC1O[C@@H](Oc2c(-c3cc(O)c(O)c(O)c3)oc3cc(O)cc(O)c3c2=O)C(O[C@@H]2OC(COC(=O)/C=C/c3ccc(O)c(O)c3)[C@@H](O)[C@@H](O)C2O)[C@@H](O)[C@H]1O (stereo partly drawn) [MbA-1GRX]
